Source: patent US20100331269A1, “TRITERPENES DERIVATIVES AND USES THEREOF AS ANTITUMOR AGENTS OR ANTI-INFLAMMATORY AGENTS” (priority 2006, published 2010)

What was measured:
[1] = system: A-549 human lung carcinoma cells; experiment: Cytotoxicity, resazurin metabolism assay, A-549; assay type: cell-based; details: 48 h, mean ± SD
From the text: (§1) Human lung carcinoma (A-549), human colon adenocarcinoma (DLD-1), human normal fibroblasts (WS1), mice melanoma (B16-F1), Human glioma (U-251), Human hepatocellular carcinoma (HEP G2), Human prostate adenocarcinoma (PC-3), Human ovary teratocarcinoma metastatic (PA-1), Human breast adenocarcinona metastatic (MDA-MB-231), Human breast adenocarcinoma (MCF-7) and Human malignant melanoma (SK-MEL-2) cell lines were obtained from the American Type Culture Collection (ATCC). All cell lines were cultured in minimum essential medium containing Earle's salts and L-glutamine (Mediatech Cellgro, Va.), to which was added 10% fetal bovine serum (Hyclone), vitamins (1×), penicillin (100 I.U./mL) and streptomycin (100 μg/mL), essential amino acids (1×) and sodium pyruvate (1×) (Mediatech Cellgro, Va.). Cells were kept at 37° C. in a humidified environment containing 5% CO2.
(§2) Exponentially growing cells were plated in 96-well microplates (Costar, Corning Inc.) at a density of 5×10^3 cells per well in 100 μL of culture medium and were allowed to adhere for 16 hours before treatment. Increasing concentrations of each compound in DMSO (Sigma-Aldrich) were then added (100 μL per well) and the cells were incubated for 48 h. […] Cytotoxicity was assessed using resazurin (O'Brien, J. et al., Eur. J. Biochem. 2000, 267, 5421-5426) on an automated 96-well Fluoroskan Ascent F1™ plate reader (Labsystems) using excitation and emission wavelengths of 530 nm and 590 nm, respectively. Fluorescence was proportional to the cellular metabolic activity in each well. Survival percentage was defined as the fluorescence in experimental wells compared to that in control wells after subtraction of blank values. Each experiment was carried out three times in triplicata. IC50 results were expressed as mean±standard deviation.
(§3) The cytotoxicity of triterpenes (1-8) and corresponding glycosides (9-30) (Table 2 below) as well as of germanicane-type triterpenes and glycosides (31-44) (Table 3 below) was assessed towards human cancer (A-549, DLD-1), mouse melanoma (B16-F1) and human normal skin fibroblast (WS1) cell lines using the resazurin reduction test (RTT test) as previously described (O'Brien, J. et al., Eur. J. Biochem. 2000, 267, 5421-5426). Measurements of fluorescence were carried out after 48 continuous hours of contact between compounds and cells. Results presented in Tables 2 and 3 below express the concentration inhibiting 50% of the cell growth (IC50). Known for its activity against A-549, betulinic acid (3) was used as a positive control in this experimentation. […] The cytotoxic activity of some of these compounds was also assessed using the Hoechst DNA assay (Table 4 below).

[2] = system: DLD-1 human colorectal adenocarcinoma cells; experiment: Cytotoxicity, resazurin metabolism assay, DLD-1; assay type: cell-based; details: 48 h, mean ± SD
From the text: as §1, §2, §3

[3] = system: B16-F1 mouse melanoma cells; experiment: Cytotoxicity, resazurin metabolism assay, B16-F1; assay type: cell-based; details: 48 h, mean ± SD
From the text: as §1, §2, §3

[4] = system: WS-1 human normal skin fibroblasts; experiment: Cytotoxicity, resazurin metabolism assay, WS-1; assay type: cell-based; details: 48 h, mean ± SD
From the text: as §1, §2, §3

A-549 cells = experiment: Cytotoxicity, Hoechst DNA assay, A-549; assay type: cell-based, human; details: ± SD
From the text: as §1, §3

DLD-1 cells = experiment: Cytotoxicity, Hoechst DNA assay, DLD-1; assay type: cell-based, human; details: ± SD
From the text: as §1, §3

B16-F1 cells = experiment: Cytotoxicity, Hoechst DNA assay, B16-F1; assay type: cell-based, mouse; details: ± SD
From the text: as §1, §3

WS-1 cells = experiment: Cytotoxicity, Hoechst DNA assay, WS-1; assay type: cell-based, human; details: ± SD
From the text: as §1, §3

Row | SMILES | IC50 [1] | IC50 [2] | IC50 [3] | IC50 [4] | IC50 (A-549 cells) | IC50 (DLD-1 cells) | IC50 (B16-F1 cells) | IC50 (WS-1 cells)
1 | C=C(C)[C@@H]1CC[C@]2(CO[C@@H]3O[C@H](CO)[C@@H](O)[C@H](O)[C@H]3O)CC[C@]3(C)[C@H](CC[C@@H]4[C@@]5(C)CC[C@H](O)C(C)(C)[C@@H]5CC[C@]43C)[C@@H]12 [Compound 15, 28-O-β-D-Glucopyranoside of Betulin] | > 248 µM | > 248 µM | > 248 µM | > 248 µM | > 194 µM | > 194 µM | > 194 µM | > 194 µM
2 | C=C(C)[C@@H]1CC[C@]2(C(=O)O)CC[C@]3(C)[C@H](CC[C@@H]4[C@@]5(C)CC[C@H](OC(C)=O)C(C)(C)[C@@H]5CC[C@]43C)[C@@H]12 [Compound 24, 3-Acetoxybetulinic Acid] | 18 ± 2 µM | 20 ± 2 µM |  | 57 ± 6 µM |  |  |  | 
3 | C=C(C)[C@@H]1CC[C@]2(C)CC[C@]3(C)[C@H](CC[C@@H]4[C@@]5(C)CC[C@H](O[C@@H]6O[C@@H](C)[C@H](O)[C@@H](O)[C@H]6O)C(C)(C)[C@@H]5CC[C@]43C)[C@@H]12 [Compound 10, 3-O-α-L-Rhamnopyranoside of lupeol] | > 178 µM | > 178 µM | > 178 µM | > 178 µM | > 178 µM | > 178 µM | > 178 µM | > 178 µM
4 | C=C(C)[C@@H]1CC[C@]2(C(=O)O)CC[C@]3(C)[C@H](CC[C@@H]4[C@@]5(C)CC[C@H](O[C@@H]6O[C@H](CO)[C@H](O)[C@H](O)[C@H]6O)C(C)(C)[C@@H]5CC[C@]43C)[C@@H]12 [Compound 28, 3-O-β-D-Galactopyranoside of Betulinic Acid] | > 100 µM | > 100 µM |  | > 100 µM |  |  |  | 
5 | CC1(C)CC[C@]23CC[C@]4(C)[C@H](CC[C@@H]5[C@@]6(C)CC[C@H](O[C@H]7O[C@H](CO)[C@@H](O)[C@H](O)[C@@H]7O)C(C)(C)[C@@H]6CC[C@]54C)[C@H]2[C@H]1OC3=O [Compound 43, 3-O-α-D-Mannopyranoside of 28-oxyallobetulin] | > 100 µM | > 100 µM |  | > 100 µM |  |  |  | 
6 | C=C(C)C1CCC2(COC3OC(C)C(O)C(O)C3O)CCC3(C)C(CCC4C5(C)CCC(O)C(C)(C)C5CCC43C)C12 [Compound 16, 28-O-α-L-Rhamnopyranoside of Betulin] | > 228 µM | > 228 µM | > 228 µM | > 228 µM | > 194 µM | > 194 µM | > 194 µM | > 194 µM
7 | C=C(C)[C@@H]1CC[C@]2(C)CC[C@]3(C)[C@H](CC[C@@H]4[C@@]5(C)CC[C@H](O)C(C)(C)[C@@H]5CC[C@]43C)[C@@H]12 [Compound 1, Lupeol, reference compound] | 165 ± 8 µM | 125 ± 6 µM | 104 ± 6 µM | 63 ± 3 µM | 130 ± 20 µM | 102 ± 6 µM | 72 ± 9 µM | 70 ± 10 µM
8 | CC1(C)CC[C@]23CC[C@]4(C)[C@H](CC[C@@H]5[C@@]6(C)CC[C@H](O)C(C)(C)[C@@H]6CC[C@]54C)[C@H]2[C@H]1OC3=O [Compound 32, 28-Oxyallobetulin] | > 100 µM | > 100 µM |  | 70 ± 9 µM |  |  |  | 
9 | C=C(C)[C@@H]1CC[C@]2(CO)CC[C@]3(C)[C@H](CC[C@@H]4[C@@]5(C)CC[C@H](O[C@@H]6O[C@H](CO)[C@@H](O)[C@H](O)[C@H]6O)C(C)(C)[C@@H]5CC[C@]43C)[C@@H]12 [Compound 12, 3-O-β-D-Glucopyranoside of Betulin] | > 200 µM | > 200 µM | > 200 µM | > 200 µM | > 200 µM | > 200 µM | > 200 µM | > 200 µM
10 | CC1(C)CC[C@]23CC[C@]4(C)[C@H](CC[C@@H]5[C@@]6(C)CC[C@H](O[C@H]7O[C@H](CO)[C@@H](O)[C@H](O)[C@@H]7O)C(C)(C)[C@@H]6CC[C@]54C)[C@H]2[C@H]1OC3 [Compound 37, 3-O-α-D-Mannopyranoside of Allobetulin] | > 100 µM | > 100 µM |  | > 100 µM |  |  |  | 
11 | C=C(C)[C@@H]1CC[C@]2(CO)CC[C@]3(C)[C@H](CC[C@@H]4[C@@]5(C)CC[C@H](O[C@@H]6O[C@H](CO)[C@H](O)[C@H](O)[C@H]6O)C(C)(C)[C@@H]5CC[C@]43C)[C@@H]12 [Compound 25, 3-O-β-D-Galactopyranoside of Betulin] | > 100 µM | > 100 µM |  | > 100 µM |  |  |  | 
12 | CC1(C)CC[C@]23CC[C@]4(C)[C@H](CC[C@@H]5[C@@]6(C)CC[C@H](O[C@H]7OC[C@@H](O)[C@@H](O)[C@@H]7O)C(C)(C)[C@@H]6CC[C@]54C)[C@H]2[C@H]1OC3=O [Compound 41, 3-O-α-D-Arabinopyranoside of 28-oxyallobetulin] | > 100 µM | > 100 µM |  | > 100 µM |  |  |  | 
13 | CC1(C)CC[C@]23CC[C@]4(C)[C@H](CC[C@@H]5[C@@]6(C)CC[C@H](O[C@@H]7OC[C@@H](O)[C@H](O)[C@H]7O)C(C)(C)[C@@H]6CC[C@]54C)[C@H]2[C@H]1OC3=O [Compound 44, 3-O-β-D-Xylopyranoside of 28-Oxyallobetulin] | > 100 µM | > 100 µM |  | > 100 µM |  |  |  | 
14 | CC1(C)CC[C@]23CC[C@]4(C)[C@H](CC[C@@H]5[C@@]6(C)CC[C@H](O[C@@H]7OC[C@@H](O)[C@H](O)[C@H]7O)C(C)(C)[C@@H]6CC[C@]54C)[C@H]2[C@H]1OC3 [Compound 38, 3-O-β-D-Xylopyranoside of Allobetulin] | > 100 µM | > 100 µM |  | > 100 µM |  |  |  | 
15 | CC1(C)CCC23CCC4(C)C(CCC5C6(C)CCC(OC7OCC(O)C(O)C7O)C(C)(C)C6CCC54C)C2C1OC3 [Compound 35, 3-O-α-D-Arabinopyranoside of Allobetulin] | > 100 µM | > 100 µM |  | > 100 µM |  |  |  | 
16 | CC1(C)CC[C@]23CC[C@]4(C)[C@H](CC[C@@H]5[C@@]6(C)CC[C@H](O)C(C)(C)[C@@H]6CC[C@]54C)[C@H]2[C@H]1OC3 [Compound 31, Allobetulin] | > 100 µM | > 100 µM |  | > 100 µM |  |  |  | 
17 | CC1(C)CCC23CCC4(C)C(CCC5C6(C)CCC(OC7OC(CO)C(O)C(O)C7O)C(C)(C)C6CCC54C)C2C1OC3=O [Compound 39, 3-O-β-D-Glucopyranoside of 28-Oxyallobetulin] | > 100 µM | > 100 µM |  | > 100 µM |  |  |  | 
18 | C=C(C)[C@@H]1CC[C@]2(COC(C)=O)CC[C@]3(C)[C@H](CC[C@@H]4[C@@]5(C)CC[C@H](OC(C)=O)C(C)(C)[C@@H]5CC[C@]43C)[C@@H]12 [Compound 4, 3,28-Diacetoxybetulin] | > 95 µM | > 95 µM | > 95 µM | > 95 µM |  |  |  | 
19 | C=C(C)[C@@H]1CC[C@]2(CO)CC[C@]3(C)[C@H](CC[C@@H]4[C@@]5(C)CC[C@H](O[C@@H]6OC[C@@H](O)[C@H](O)[C@H]6O)C(C)(C)[C@@H]5CC[C@]43C)[C@@H]12 [Compound 27, 3-O-β-D-Xylopyranoside of Betulin] | 90 ± 10 µM | > 100 µM |  | > 100 µM |  |  |  | 
20 | C[C@@H]1O[C@@H](O[C@H]2CC[C@]3(C)[C@H]4CC[C@@H]5[C@H]6[C@H]7OC(=O)[C@@]6(CCC7(C)C)CC[C@@]5(C)[C@]4(C)CC[C@H]3C2(C)C)[C@H](O)[C@H](O)[C@H]1O [Compound 40, 3-O-α-L-Rhamnopyranoside of 28-Oxyallobetulin] | > 100 µM | > 100 µM |  | > 100 µM |  |  |  | 
21 | C[C@@H]1O[C@@H](O[C@H]2CC[C@]3(C)[C@H]4CC[C@@H]5[C@H]6[C@H]7OC[C@@]6(CCC7(C)C)CC[C@@]5(C)[C@]4(C)CC[C@H]3C2(C)C)[C@H](O)[C@H](O)[C@H]1O [Compound 34, 3-O-α-L-Rhamnopyranoside of Allobetulin] | > 100 µM | > 100 µM |  | 75 ± 5 µM |  |  |  | 
22 | CC1(C)CC[C@]23CC[C@]4(C)[C@H](CC[C@@H]5[C@@]6(C)CC[C@H](O[C@@H]7O[C@H](CO)[C@H](O)[C@H](O)[C@H]7O)C(C)(C)[C@@H]6CC[C@]54C)[C@H]2[C@H]1OC3=O [Compound 42, 3-O-β-D-Galactopyranoside of 28-Oxyallobetulin] | > 100 µM | > 100 µM |  | > 100 µM |  |  |  | 
